Literature values, collected in patent publication US20250143905A1, “TOPICAL TREATMENT FOR ANORECTAL DISORDERS WITH AND WITHOUT SEAT CUSHION” (priority 2019, published 2025).

System: PPAR-γ
Conditions: septic rats; pretreatment with curcumin for 3 days at 0.24 μmol/kg body weight; liver

COc1cc(/C=C/C(=O)CC(=O)/C=C/c2ccc(O)c(OC)c2)ccc1O [curcumin]
increase in PPAR-γ mRNA levels: 45%
increase in PPAR-γ protein levels: 65%
